# Assay results taken from patent publication US9738605B2, “Hybrid compounds of curcumin and melatonin as neuroprotectants for neurodegenerative disorders” (VIRGINIA COMMONWEALTH UNIVERSITY, priority 2013, dated 2017).
# Like-named read-outs stand apart in the source and are kept apart here.
# Tests used:
# MC65 cells [1] = experiment: Neuroprotection assay in MC65 cells (−TC, MTT); settings: for EC50: read-out: EC50 for neuroprotection of MC65 cells
# Experimental: MC65 cells were washed twice with PBS, resuspended in Opti-MEM, and seeded in 96-well plates (4×10^4 cells/well). Indicated compounds were then added, and cells were incubated at 37° C. under +TC or −TC conditions for 72 h. Then, 10 μL of MTT (5 mg/mL in PBS) were added and the cells were incubated for another 4 h. Cell medium was then removed, and the remaining formazan crystals produced by the cellular reduction of MTT were dissolved in DMSO. Absorbance at 570 nm was immediately recorded using a FlexStation® 3 plate reader (Molecular Devices, CA).
# in vitro = settings: for Papp: PAMPA
# Experimental: In the same assay, 10 commercial drugs with known CNS penetration were also tested as positive controls, and their experimental values were compared to reported values (Table 1).
# HT22 cells = experiment: Hydrogen peroxide toxicity assay in HT22 cells; assay type: cell-based, mouse; settings: 24 h
# Experimental: HT22 cells were seeded in 96-well plates (4×10^3 cells/well) in growth medium and incubated for 24 h at 37° C. The medium was removed and compounds were added at the indicated concentrations in fresh growth medium, and the cells were incubated for another 1 h. H2O2 was then added at a final concentration of 500 μM, and the plates were then incubated for 24 h. Cell viability was assessed by MTT assay as previously described. Values were expressed as a percentage relative to the negative (H2O2-free) control.
# MC65 cells [2] = experiment: Cytotoxicity in MC65 cells under normal growth conditions (+TC), MTT; assay type: cell-based; settings: 72 h
# Experimental: FIG. 7A-D. Effects on viability of TRO19622, Mito-TEMPO and 7 in MC65 cells. A. MC65 cells were treated with Mito-TEMPO or TRO-19622 at indicated concentrations under normal growth conditions (+TC) for 72 h. Cell viability was assessed by MTT assay. Data were expressed as mean percentage viability (n=3) with parallel +TC cultures set at 100% viability. Error bars represent SEM. B. MC65 cells were treated with Mito-TEMPO at indicated concentrations under −TC conditions for 72 h. Cell viability was assessed by MTT assay. Data were expressed as mean percentage viability (n=3) with parallel +TC cultures set at 100% viability. C. MC65 cells were treated with TRO-19622 at indicated concentrations under −TC conditions for 72 h. Cell viability was assessed by MTT assay. Data were expressed as mean percentage viability (n=3) with parallel +TC cultures set at 100% viability. D. MC65 cells were treated with 7 or Mito-TEMPO at indicated concentrations for 2 h before addition of rotenone for 48 h. Cell viability was assessed by MTT assay. Data were expressed as mean percentage viability (n=3) with parallel +TC cultures set at 100% viability. […]
# Aβ42 = molecular target: T1, Aβ42 (Homo sapiens, UniProt P05067); experiment: Thioflavin T assay of Aβ42 fibril formation; assay type: biochemical; settings: 10 μM compound, Aβ42 25 μm, 48 h, ThT; read-out: inhibition of the formation of Aβ42 fibrils
# T1 construct: purchased American Peptide, Inc. (Sunnyvale, Calif.)
# T1 sequence (P05067 672-713 limits assumed): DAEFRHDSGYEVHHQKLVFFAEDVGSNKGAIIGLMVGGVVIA
# Experimental: Briefly, 1 μL of each compound solution in DMSO (0.01 μM to 100 μM) was added to corresponding wells in a 96-well plate. Each concentration was prepared in independent triplicates and a solvent control was included. To each well, 9 μL of 25 μM Aβ42 in PBS (pH 7.4) was added, and then plates were incubated in dark at room temperature for 48 h. Next, 200 μL of a 5 μM ThT in 50 mM glycine solution (pH 8.0) was added to each well.
# [3] = background statement; cited from earlier work
# [4] = system: intracellular oxidative stress in MC65 cells; experiment: ROS production assay in MC65 cells (DCFH-DA); assay type: cell-based; settings: −TC, 48 h, DCFH-DA 25 μM, read-out: IC50 for suppression of intracellular oxidative stress
# Experimental: Cells were harvested, washed twice with cold PBS, then suspended in PBS and incubated with DCFH-DA (25 μM) in dark for 1 h. Fluorescence was analyzed by flow cytometry using a Millipore Guava® easyCyte flow cytometer.
# [5] = system: amyloid-β oligomers (AβOs) in MC65 cells; experiment: Western blot (6E10) of AβOs production in MC65 cells; assay type: cell-based; settings: MC65 cells after removal of TC, 6E10 antibody
# Experimental: MC65 cells (4×10^5 cells/mL) were treated with indicated compounds for 30 h and then were lysed by sonication in a Tricine buffer solution and boiled for 5 min. Protein samples were collected from the supernatant after centrifugation of the samples at 12,800×g for 5 min, and then quantified using the Bradford method. Equal amounts of protein (20.0 μg) were separated by SDS-PAGE on a gel (Bio-Rad) and transferred onto a PVDF membrane (Bio-Rad). The blots were blocked with 5% milk in TBS-Tween 20 (0.1%) solution at room temperature for 1 h and then probed with the 6E10 antibody overnight at 4° C. The blots were washed twice in TB S-Tween 20 for 15 min, and then incubated with a 1:1000 dilution of horseradish peroxidase-conjugated secondary antibody in a 5% milk/PBS-Tween 20 solution at room temperature for 1 h. After washing twice in TBS-Tween 20 for 15 min, the proteins were visualized by a Western Blot Chemiluminescence Reagent (Thermo Fischer Scientific, Waltham, Mass.). The blots were also probed with antibodies against α-tubulin to ensure equal loading of proteins.
# MC65 cells [6] = experiment: Rotenone protection assay in MC65 cells; assay type: cell-based; settings: 10 μM, 48 h
# Experimental: The medium was removed and compounds were added at the indicated concentrations in fresh growth medium, and the cells were incubated for another 2 h. Rotenone was then added at a final concentration of 10 μM, and the plates were then incubated for 48 h. Cell viability was assessed by MTT assay.
smiles,measurement,setting,value
COc1ccc2[nH]cc(CCNC(=O)CC(=O)C=Cc3ccc4c(c3)OCO4)c2c1 [ZSJ-II-126],neuroprotection of MC65 cells from −TC induced cell death,"MC65 cells [1]; 0.3 μM, −TC, 72 h, MTT",diminished protection
"CN1C(C(=O)Nc2ccccn2)=C(O)c2ccccc2S1(=O)=O [Piroxicam, reference compound]",Papp,in vitro,6 ± 0.3 ×10⁻⁶ cm/s
COc1cccc(C=CC(=O)CC(=O)NCCc2c[nH]c3ccc(OC)cc23)c1 [Compound 4],neuroprotection of MC65 cells from −TC induced cell death,"MC65 cells [1]; 0.3 μM, −TC, 72 h, MTT",complete loss of neuroprotection
"CN(C)CCCN1c2ccccc2Sc2ccccc21 [Promazine, reference compound]",Papp,in vitro,25.1 ± 1.4 ×10⁻⁶ cm/s
COc1ccc2[nH]cc(CCNC(=O)CC(=O)C=Cc3ccco3)c2c1 [AM4],neuroprotection of MC65 cells from −TC induced cell death,"MC65 cells [1]; 0.3 μM, −TC, 72 h, MTT",did not show neuroprotection
"Cc1c(C)c2c(c(C)c1O)CCC(C)(C(=O)O)O2 (centres unmarked) [Trolox, 6-hydroxy-2,5,7,8-tetramethyl chroman-2-carboxylic acid]",protection from H2O2-induced cytotoxicity,"HT22 cells; 300 μM, H2O2 500 μM",full rescue
"OO [Compound H2O2, H2O2]",HT22 cell death,HT22 cells; 500 μM,~58%
COc1ccc2[nH]cc(CCNC(=O)CC(=O)C=Cc3ccncc3)c2c1 [AM6],protection compared to −TC control,"MC65 cells [1]; 0.3 μM, −TC, 72 h",~33%
"CC(C)CCC[C@@H](C)[C@H]1CC[C@H]2[C@@H]3CCC4=CC(=NO)CC[C@]4(C)[C@H]3CC[C@]12C [TRO-19622, reference compound]",protection from −TC induced cytotoxicity,"MC65 cells [1]; up to 25 μM, −TC, 72 h",did not show significant protection
same,cytotoxicity in MC65 cells under +TC,MC65 cells [2]; up to 25 μM,did not show cytotoxicity
"COc1cc(/C=C/C(=O)CC(=O)/C=C/c2ccc(O)c(OC)c2)ccc1O [Compound 1, Curcumin]",neuroprotection of MC65 cells from −TC induced cell death,"MC65 cells [1]; 0.3 μM, −TC, 72 h, MTT",no neuroprotection
same,neuroprotection at much higher concentrations (data not shown),"MC65 cells [1]; 3 and 10 μM, −TC",moderate neuroprotection
same,inhibition at 10 µM,Aβ42,27.3%
"CC1(C)CC(NC(=O)C[P+](c2ccccc2)(c2ccccc2)c2ccccc2)CC(C)(C)N1[O] [Mito-TEMPO, reference compound]",protection from −TC induced cytotoxicity,"MC65 cells [1]; indicated concentrations, maximum 10 μM, −TC, 72 h",dose-dependently protected
same,toxic effects in MC65 cells under +TC,MC65 cells [2]; up to 10 μM,did not show toxic effects
"COc1ccc2[nH]cc(CCNC(C)=O)c2c1 [Compound 2, Melatonin]",neuroprotection of MC65 cells from −TC induced cell death,"MC65 cells [1]; 0.3 μM, −TC, 72 h, MTT",no neuroprotection
same,half-life,[3],< 30 min
COc1ccc2[nH]cc(CCNC(=O)CC(=O)C=Cc3ccoc3)c2c1 [AM5],protection compared to −TC control,"MC65 cells [1]; 0.3 μM, −TC, 72 h",~48%
COc1ccc2[nH]cc(CCNC(=O)CC(=O)/C=C/c3ccc(O)cc3)c2c1 [Compound 5],neuroprotection of MC65 cells from −TC induced cell death,"MC65 cells [1]; 0.3 μM, −TC, 72 h, MTT",significant neuroprotection
same,EC50,"MC65 cells [1]; MC65, 72 h",23.1 ± 5.23 nM
same,IC50,[4],~63 nM
same,"effect on the production of AβOs (tetramers, pentamers, heptamers)",[5],dose-dependently suppressed
same,Papp,in vitro,5.9 ± 0.4 ×10⁻⁶ cm/s
"C=C(C)[C@H]1Cc2c(ccc3c2O[C@@H]2COc4cc(OC)c(OC)cc4[C@@H]2C3=O)O1 [rotenone, reference compound]",cell death of MC65 cells,MC65 cells [6],75.6%
COc1ccc2[nH]cc(CCNC(=O)CC(=O)C=Cc3ccc(N(C)C)cc3)c2c1 [AM14],protection compared to −TC control,"MC65 cells [1]; 0.3 μM, −TC, 72 h",~0.20%
COc1ccc2[nH]cc(CCNC(=O)CC(=O)/C=C/c3ccc(O)c(OC)c3)c2c1 [Compound 3],increase in cell viability,"MC65 cells [1]; 0.3 μM, −TC, 72 h",~61%
same,EC50,"MC65 cells [1]; −TC conditions, 72 h, MTT",134 ± 4.5 nM
same,Permeability Pe (exp.),"in vitro; PBS:EtOH (70:30), mean ± SD of 3 independent experiments",6.5 ± 0.6 10^−6 cm s^−1
same,Prediction of penetration in the CNS,in vitro; from Pe (exp.) and correlation with reported values,CNS− (compounds with Pe<8.1×10^−6 cm s^−1 will have low BBB permeability by passive diffusion)
